Our source for the TGI and GI50 values is PubChem BioAssay (NCI).

Where “and” joins values, the source holds several entries; their conditions need not be identical. Equal values may be shown once.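 Results reflect a 48-hour exposure of cells in 96-well plates to compound at five concentrations. At the GI50, growth is halved. TGI marks complete inhibition of growth.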

For one test, the system named is KM12 colon. As to the kind of experiment: DTP human tumour cell line panel, 48 h.
As for `O=S(=O)(c1ccccc1)C1CN2OC1(S(=O)(=O)c1ccccc1)CC2c1ccc(Br)cc1` (configuration not stated), the TGI (in general, the concentration giving total growth inhibition) was greater than 100 µM.
Regarding `CC(=O)O[C@H]1CCC2[C@@H]3CCC4Nc5[nH]ncc5C[C@]4(C)C3CC[C@@]21C` (some centres not stated), the TGI is greater than 100 µM.
Same read-out and setting: the same measure for `Cc1cc(C)nc(NS(=O)(=O)c2ccc(NC(=O)c3cccc4c(Nc5ccc(S(N)(=O)=O)cc5)c5ccccc5nc34)cc2)n1`: 47.3 µM; for `Cc1cc(S(=O)(=O)O)c(NC(=O)C(=O)Cc2cc(=O)oc3cc(O)ccc23)cc1Cl`: greater than 100 µM.
As for `C=C1C(=O)O[C@H]2[C@H]1CC/C(COC(=O)/C=C\C(=O)NCc1ccc(Cn3c(=O)sn(CCCC)c3=O)cc1)=C\CC[C@@]1(C)O[C@@H]21`, the GI50 (as a rule, the concentration at which growth is held to half of that of the control) was 1670 nM and the TGI is 3.8 µM.

A further test deals with K-562 leukemia. As to the kind of experiment: DTP human tumour cell line panel, 48 h.
Consider `CC(C)C(=O)NS(=O)(=O)c1ccccc1`, for which the TGI was greater than 100 µM.
Molecule `COC1(OC)CC2C(=O)N(Cc3ccccc3)C1C=C2S(=O)(=O)c1ccccc1` (configuration not stated) came in with a TGI of 63.2 µM.
Regarding `CC(=O)[O][Ga]([Br])[O]C(C)=O`, the GI50 was greater than 100000 nM and the TGI is greater than 100 µM.
In turn, `COc1cc2c(OC)cc1CSCc1sc(C)c(c1Br)CSC2` came in with a TGI greater than 100 µM.
On the same count and under the same terms, the same measure for `CC(C)N(C(=O)C12C3C4C1(I)C1C2C3(I)C41C(=O)N(C(C)C)C(C)C)C(C)C` (configuration not stated): greater than 63.6 µM; for `Cc1cccc(C)c1NC(=O)C(=O)C(C(=O)c1ccccc1-c1ccccc1)C1OC(=O)c2ccccc21` (configuration not stated): greater than 100 µM; for `CC1COC(C)(C)P(=O)(c2ccccc2)C1` (configuration not stated): greater than 100 µM.
Consider `Cc1ccc(S(=O)(=O)c2ccc(N)cc2)cc1`, for which the TGI was greater than 100 µM.
In turn, `CCOP(=O)(OCC)OC1C=CC2CCC1C2` (configuration not stated) gave a TGI greater than 100 µM.
Take `COC(=O)[C@H]1C=C[C@@H](C)n2c(=O)c3cc4ccccc4cc3c(=O)n21`: the TGI was greater than 100 µM.
Molecule `COc1cc(C=O)c(-c2cc(OC)c(OC)cc2C=O)cc1OC` yielded a TGI greater than 100 µM.
The same measure, in the same setting: the figure for `N#CC(C(=O)C(=O)Nc1ccc(Cl)cc1)c1ccccc1` (configuration not stated) is greater than 100 µM.
Take `COc1c[c]([Hg][O]C(C)=O)c(OC)c(NC(=O)CC(C)=O)[c]1[Hg][O]C(C)=O`: the GI50 is 1480 nM and the TGI stood at 5.53 µM.
With `COC(=O)/C=C1\CCC(C)O1` (configuration not stated), the TGI was greater than 100 µM.
On the same count and under the same terms, the figure for `O=C(/C=C/c1ccccc1Cl)NC1C=Nc2ccc([N+](=O)[O-])cc2NC1` (configuration not stated) is greater than 100 µM.
`CC[C@H]1CN2CCc3cc(OC)c(OC)cc3[C@@H]2C[C@@H]1C[C@H]1NCCc2c1[nH]c1ccc(O)cc21`: the GI50 is 26.3 nM and 35.3 nM.
Molecule `CCCO/S(=N\S(=O)(=O)c1ccccc1)c1ccccc1[N+](=O)[O-]` (configuration not stated) gave a total growth inhibition concentration (TGI) greater than 100 µM.
For `Cc1ccc(C)c(N=C2NC(=O)C(CC(=O)Nc3ccc(Cl)cc3Cl)S2)c1` (configuration not stated), the TGI is greater than 100 µM.
Same read-out and setting: the figure for `C/C(CC(=O)Nc1cccc(Cl)c1C)=N\NC(=O)c1ccncc1` is greater than 100 µM; for `Cc1cc(NS(=O)(=O)c2ccc(Nc3c4ccccc4nc4c(C(=O)N5CCN(CCO)CC5)ccc(Cl)c34)cc2)no1` it is greater than 100 µM.
In turn, `O=C(O)CC(NC(=O)CP(=O)(O)O)C(=O)O` (configuration not stated) displayed a TGI greater than 10000 µM.
`Cc1nc([N+](=O)[O-])cn1CC(=N)N` yielded a TGI greater than 100 µM.
Same read-out and setting: the same measure for `COC(=O)/C=C/c1c(CC=C(C)C)ncn1C`: greater than 100 µM; for `O=S(=O)(c1ccccc1)C1CN2OC1(S(=O)(=O)c1ccccc1)CC2c1ccc(Br)cc1` (configuration not stated): greater than 100 µM; for `CC(=O)O[C@H]1CCC2[C@@H]3CCC4Nc5[nH]ncc5C[C@]4(C)C3CC[C@@]21C` (some centres not stated): greater than 100 µM.
Same read-out and setting: the figure for `Cc1cc(C)nc(NS(=O)(=O)c2ccc(NC(=O)c3cccc4c(Nc5ccc(S(N)(=O)=O)cc5)c5ccccc5nc34)cc2)n1` is greater than 67.6 µM; for `Cc1cc(S(=O)(=O)O)c(NC(=O)C(=O)Cc2cc(=O)oc3cc(O)ccc23)cc1Cl` it is greater than 100 µM.
For the molecule `C=C1C(=O)O[C@H]2[C@H]1CC/C(COC(=O)/C=C\C(=O)NCc1ccc(Cn3c(=O)sn(CCCC)c3=O)cc1)=C\CC[C@@]1(C)O[C@@H]21`, the GI50 is 316 nM and the TGI is 4.82 µM.

A further test deals with ACHN renal. As to the kind of experiment: DTP human tumour cell line panel, 48 h.
In the case of `CC(C)C(=O)NS(=O)(=O)c1ccccc1`, the total growth inhibition concentration (TGI) is greater than 100 µM.
Same read-out and setting: the same measure for `COC1(OC)CC2C(=O)N(Cc3ccccc3)C1C=C2S(=O)(=O)c1ccccc1` (configuration not stated): 44.4 µM.
On to `CC(=O)[O][Ga]([Br])[O]C(C)=O`, for which the GI50 is greater than 100000 nM and the TGI was greater than 100 µM.
For `COc1cc2c(OC)cc1CSCc1sc(C)c(c1Br)CSC2`, the TGI is greater than 100 µM.
Same read-out and setting: the figure for `CC(C)N(C(=O)C12C3C4C1(I)C1C2C3(I)C41C(=O)N(C(C)C)C(C)C)C(C)C` (configuration not stated) is greater than 100 µM; for `Cc1cccc(C)c1NC(=O)C(=O)C(C(=O)c1ccccc1-c1ccccc1)C1OC(=O)c2ccccc21` (configuration not stated) it is greater than 100 µM; for `CC1COC(C)(C)P(=O)(c2ccccc2)C1` (configuration not stated) it is greater than 100 µM.
The same measure, in the same setting: the figure for `Cc1ccc(S(=O)(=O)c2ccc(N)cc2)cc1` is greater than 100 µM; for `CCOP(=O)(OCC)OC1C=CC2CCC1C2` (configuration not stated) it is greater than 100 µM.
In turn, `COC(=O)[C@H]1C=C[C@@H](C)n2c(=O)c3cc4ccccc4cc3c(=O)n21` returned a TGI greater than 100 µM.
On the same count and under the same terms, the figure for `COc1cc(C=O)c(-c2cc(OC)c(OC)cc2C=O)cc1OC` is greater than 100 µM.
In turn, `N#CC(C(=O)C(=O)Nc1ccc(Cl)cc1)c1ccccc1` (configuration not stated) registered a TGI greater than 100 µM.
Turning to `COc1c[c]([Hg][O]C(C)=O)c(OC)c(NC(=O)CC(C)=O)[c]1[Hg][O]C(C)=O`, the GI50 was 3010 nM and the TGI is 8.53 µM.
Turning to `COC(=O)/C=C1\CCC(C)O1` (configuration not stated), the TGI was greater than 100 µM.
Same read-out and setting: the same measure for `O=C(/C=C/c1ccccc1Cl)NC1C=Nc2ccc([N+](=O)[O-])cc2NC1` (configuration not stated): greater than 100 µM.
For the molecule `CC[C@H]1CN2CCc3cc(OC)c(OC)cc3[C@@H]2C[C@@H]1C[C@H]1NCCc2c1[nH]c1ccc(O)cc21`, the GI50 is 78.2 nM and 121 nM; the TGI is 0.57 µM and 0.511 µM and 1.5 µM.
In turn, `CCCO/S(=N\S(=O)(=O)c1ccccc1)c1ccccc1[N+](=O)[O-]` (configuration not stated) came in with a TGI greater than 100 µM.
Still for that read-out and setting: the same measure for `Cc1ccc(C)c(N=C2NC(=O)C(CC(=O)Nc3ccc(Cl)cc3Cl)S2)c1` (configuration not stated): greater than 100 µM.
Still for that read-out and setting: the figure for `O=C(O)CC(NC(=O)CP(=O)(O)O)C(=O)O` (configuration not stated) is greater than 10000 µM.
The molecule `Cc1nc([N+](=O)[O-])cn1CC(=N)N` had a TGI greater than 100 µM.
The same measure, in the same setting: the figure for `COC(=O)/C=C/c1c(CC=C(C)C)ncn1C` is greater than 100 µM.
Same read-out and setting: the figure for `O=S(=O)(c1ccccc1)C1CN2OC1(S(=O)(=O)c1ccccc1)CC2c1ccc(Br)cc1` (configuration not stated) is greater than 100 µM; for `CC(=O)O[C@H]1CCC2[C@@H]3CCC4Nc5[nH]ncc5C[C@]4(C)C3CC[C@@]21C` (some centres not stated) it is greater than 100 µM.
The same measure, in the same setting: the figure for `Cc1cc(C)nc(NS(=O)(=O)c2ccc(NC(=O)c3cccc4c(Nc5ccc(S(N)(=O)=O)cc5)c5ccccc5nc34)cc2)n1` is greater than 100 µM.
The molecule `Cc1cc(S(=O)(=O)O)c(NC(=O)C(=O)Cc2cc(=O)oc3cc(O)ccc23)cc1Cl` gave a TGI greater than 100 µM.
For `C=C1C(=O)O[C@H]2[C@H]1CC/C(COC(=O)/C=C\C(=O)NCc1ccc(Cn3c(=O)sn(CCCC)c3=O)cc1)=C\CC[C@@]1(C)O[C@@H]21`, the GI50 is 299 nM and the TGI was determined as 0.994 µM.
